Key:
[1] = tested on: p21 induction in HCT116 cells; experiment: p21 induction in HCT116 cells; assay type: cell-based; conditions: Homo sapiens, HCT-116, 24 h, HCT116 cells, 24 h compound incubation; read-out: P21_EC50
Method in brief: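 EC50 from non-linear curve fit of p21 immunofluorescence (800 nm), with GAPDH (700 nm) read alongside. DMSO and a reference WRN inhibitor served as low and high controls. Cells (2,000/well) got 11 compound concentrations in duplicate for 24 h at 37 °C.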

[2] = biological target: WRN (BV08), human Werner helicase (Uniprot Q14191, amino acids 517-1235 with L1074F point mutation) (Homo sapiens (Human), UniProt Q14191, L1074F); experiment: WRN (BV08) ADP-Glo assay; assay type: biochemical; conditions: class symbols A-E, read-out: ADP-Glo_hWRN_IC50
Sequence of WRN (BV08), human Werner helicase (Uniprot Q14191, amino acids 517-1235 with L1074F point mutation) (Q14191 other isoform, or with tags, fused parts or gaps L1074F (already in the parent)): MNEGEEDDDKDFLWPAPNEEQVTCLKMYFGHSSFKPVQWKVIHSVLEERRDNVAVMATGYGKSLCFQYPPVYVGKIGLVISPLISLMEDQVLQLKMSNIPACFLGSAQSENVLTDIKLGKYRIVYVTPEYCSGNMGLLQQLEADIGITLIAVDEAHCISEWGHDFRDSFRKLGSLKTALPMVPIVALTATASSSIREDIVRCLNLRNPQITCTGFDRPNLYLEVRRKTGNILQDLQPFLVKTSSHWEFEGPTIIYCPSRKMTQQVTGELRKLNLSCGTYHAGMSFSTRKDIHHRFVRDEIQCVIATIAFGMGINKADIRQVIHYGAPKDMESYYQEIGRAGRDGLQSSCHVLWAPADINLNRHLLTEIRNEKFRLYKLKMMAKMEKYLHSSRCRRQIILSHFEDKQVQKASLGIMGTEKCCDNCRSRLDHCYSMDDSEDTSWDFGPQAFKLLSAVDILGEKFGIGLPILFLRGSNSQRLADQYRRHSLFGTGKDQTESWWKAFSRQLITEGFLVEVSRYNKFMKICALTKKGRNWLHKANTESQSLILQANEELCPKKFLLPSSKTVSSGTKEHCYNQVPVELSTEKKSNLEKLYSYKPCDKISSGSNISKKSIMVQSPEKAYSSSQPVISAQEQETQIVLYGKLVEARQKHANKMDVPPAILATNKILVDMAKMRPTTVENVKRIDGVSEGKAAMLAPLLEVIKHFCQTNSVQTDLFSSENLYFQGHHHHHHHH

SMILES | EC50 [1] [nM] | IC50 [2] [nM]
CCc1c(N2CCN(C(=O)c3ncnc(C)c3O)C(CO)C2)c(=O)c2nc(N(C)C)cnc2n1CC(=O)Nc1ccc(C(F)(F)F)cc1Cl (centres unmarked) [I-178, N-[2-chloro-4-(trifluoromethyl)phenyl]-2-[2-(dimethylamino)-6-ethyl-7-[4-(5-hydroxy-6-methylpyrimidine-4-carbonyl)-3-(hydroxymethyl)piperazin-1-yl]-8-oxo-5H,8H-pyrido[2,3-b]pyrazin-5-yl]acetamide] | > 5000 | 5 to 50
CCc1c(N2CCN(C(=O)c3ncnc(C)c3O)[C@H]3CC[C@@H]32)c(=O)c2nc(OC3CCC3)cnc2n1CC(=O)Nc1ccc(C(F)(F)F)cc1Cl [I-181, N-[2-chloro-4-(trifluoromethyl)phenyl]-2-{2-cyclobutoxy-6-ethyl-7-[(1S,6S)-5-(5-hydroxy-6-methylpyrimidine-4-carbonyl)-2,5-diazabicyclo[4.2.0]octan-2-yl]-8-oxo-5H,8H-pyrido[2,3-b]pyrazin-5-yl}acetamide] | < 500 | 5 to 50
CCc1c(N2CCN(C(=O)c3ncnc(C)c3O)[C@H]3CC[C@@H]32)c(=O)c2nc(OC)cnc2n1CC(=O)Nc1ccc(C(F)(F)F)cc1Cl [I-182, N-[2-chloro-4-(trifluoromethyl)phenyl]-2-{6-ethyl-7-[(1S,6S)-5-(5-hydroxy-6-methylpyrimidine-4-carbonyl)-2,5-diazabicyclo[4.2.0]octan-2-yl]-2-methoxy-8-oxo-5H,8H-pyrido[2,3-b]pyrazin-5-yl} acetamide] | < 500 | ≤ 5
CCc1c(N2CCN(C(=O)c3c(O)cnnc3OC)[C@H]3CC[C@@H]32)c(=O)c2nc(N(C)C)cnc2n1CC(=O)Nc1ccc(C(F)(F)F)cc1Cl [I-183, N-[2-chloro-4-(trifluoromethyl)phenyl]-2-[2-(dimethylamino)-6-ethyl-7-[(1S,6S)-5-(5-hydroxy-3-methoxypyridazine-4-carbonyl)-2,5-diazabicyclo[4.2.0]octan-2-yl]-8-oxo-5H,8H-pyrido[2,3-b]pyrazin-5-yl]acetamide] | > 5000 | 5 to 50
CCc1c(N2CCN(C(=O)c3cnn(C)c3)[C@H]3CC[C@@H]32)c(=O)c2nc(N(C)C)cnc2n1CC(=O)Nc1ccc(C(F)(F)F)cc1Cl [I-184, N-[2-chloro-4-(trifluoromethyl)phenyl]-2-[2-(dimethylamino)-6-ethyl-7-[(1S,6S)-5-(1-methyl-1H-pyrazole-4-carbonyl)-2,5-diazabicyclo[4.2.0]octan-2-yl]-8-oxo-5H,8H-pyrido[2,3-b]pyrazin-5-yl]acetamide] | 2000 to 5000 | 5 to 50
CCc1c(N2CCN(C(=O)c3ncnc(C)c3O)C[C@@H]2C)c(=O)c2nc(N(C)C)cnc2n1CC(=O)Nc1ccc(S(F)(F)(F)(F)F)cc1Cl [I-185, N-[2-chloro-4-(pentafluoro-lambda6-sulfanyl)phenyl]-2-[2-(dimethylamino)-6-ethyl-7-[(2S)-4-(5-hydroxy-6-methylpyrimidine-4-carbonyl)-2-methylpiperazin-1-yl]-8-oxo-5H,8H-pyrido[2,3-b]pyrazin-5-yl]acetamide] | < 500 | 5 to 50
CCc1c(N2CCN(C(=O)c3ncnc(C)c3O)C[C@@H]2C)c(=O)c2nc(N3CC[C@H]3COC)cnc2n1CC(=O)Nc1ccc(C(F)(F)F)cc1Cl [I-188, N-[2-chloro-4-(trifluoromethyl)phenyl]-2-{6-ethyl-7-[(2S)-4-(5-hydroxy-6-methylpyrimidine-4-carbonyl)-2-methylpiperazin-1-yl]-2-[(2S)-2-(methoxymethyl)azetidin-1-yl]-8-oxo-5H,8H-pyrido[2,3-b]pyrazin-5-yl}acetamide] | 500 to 2000 | 5 to 50
CCc1c(N2CCN(C(=O)c3ncnc(C)c3O)C[C@@H]2C)c(=O)c2nc(N3CC[C@@H]3COC)cnc2n1CC(=O)Nc1ccc(C(F)(F)F)cc1Cl [I-189, N-[2-chloro-4-(trifluoromethyl)phenyl]-2-{6-ethyl-7-[(2S)-4-(5-hydroxy-6-methylpyrimidine-4-carbonyl)-2-methylpiperazin-1-yl]-2-[(2R)-2-(methoxymethyl)azetidin-1-yl]-8-oxo-5H,8H-pyrido[2,3-b]pyrazin-5-yl}acetamide] | 500 to 2000 | 5 to 50
CCc1c(N2CCN(C(=O)c3ncnc(C)c3O)C[C@@H]2C)c(=O)c2nc(N3CCC3)cnc2n1CC(=O)Nc1ccc(S(F)(F)(F)(F)F)cc1Cl [I-190, 2-[2-(azetidin-1-yl)-6-ethyl-7-[(2S)-4-(5-hydroxy-6-methylpyrimidine-4-carbonyl)-2-methylpiperazin-1-yl]-8-oxo-5H,8H-pyrido[2,3-b]pyrazin-5-yl]-N-[2-chloro-4-(pentafluoro-lambda6-sulfanyl)phenyl]acetamide] | < 500 | 5 to 50

The remaining lines, values ahead:

EC50 [1] [nM] | IC50 [2] [nM] | SMILES
> 5000 | 50 to 100 | CCc1c(N2CCN(C(=O)c3ncnc(C)c3O)C3(CC3)C2)c(=O)c2nc(N(C)C)cnc2n1CC(=O)Nc1ccc(C(F)(F)F)cc1Cl [I-176, N-[2-chloro-4-(trifluoromethyl)phenyl]-2-[2-(dimethylamino)-6-ethyl-7-[4-(5-hydroxy-6-methylpyrimidine-4-carbonyl)-4,7-diazaspiro[2.5]octan-7-yl]-8-oxo-5H,8H-pyrido[2,3-b]pyrazin-5-yl]acetamide]
> 5000 | 5 to 50 | CCc1c(N2CCN(C(=O)c3ncnc(C)c3O)CC2)c(=O)c2nc(N3CCC(F)(F)C3)cnc2n1CC(=O)Nc1ccc(C(F)(F)F)cc1Cl [I-177, N-[2-chloro-4-(trifluoromethyl)phenyl]-2-[2-(3,3-difluoropyrrolidin-1-yl)-6-ethyl-7-[4-(5-hydroxy-6-methylpyrimidine-4-carbonyl)piperazin-1-yl]-8-oxo-5H,8H-pyrido[2,3-b]pyrazin-5-yl]acetamide]
2000 to 5000 | 5 to 50 | CCc1c(N2CCN(C(=O)c3ncnc(C)c3O)CC2)c(=O)c2nc(N(C3CC3)C3CC3)cnc2n1CC(=O)Nc1ccc(C(F)(F)F)cc1Cl [I-179, N-[2-chloro-4-(trifluoromethyl)phenyl]-2-[2-(dicyclopropylamino)-6-ethyl-7-[4-(5-hydroxy-6-methylpyrimidine-4-carbonyl)piperazin-1-yl]-8-oxo-5H,8H-pyrido[2,3-b]pyrazin-5-yl]acetamide]
500 to 2000 | 5 to 50 | CCc1c(N2CCN(C(=O)c3ncnc(C)c3O)CC2)c(=O)c2nc(C=C3CC(C)(O)C3)cnc2n1CC(=O)Nc1ccc(C(F)(F)F)cc1Cl (centres unmarked) [I-180, N-[2-chloro-4-(trifluoromethyl)phenyl]-2-{6-ethyl-2-[(3-hydroxy-3-methylcyclobutylidene)methyl]-7-[4-(5-hydroxy-6-methylpyrimidine-4-carbonyl)piperazin-1-yl]-8-oxo-5H,8H-pyrido[2,3-b]pyrazin-5-yl}acetamide]
2000 to 5000 | 5 to 50 | CCc1c(N2CCN(C(=O)c3ncnc(C)c3O)CC2)c(=O)c2nc(NCC3CC3)cnc2n1CC(=O)Nc1ccc(C(F)(F)F)cc1Cl [I-186, N-[2-chloro-4-(trifluoromethyl)phenyl]-2-{2-[(cyclopropylmethyl)amino]-6-ethyl-7-[4-(5-hydroxy-6-methylpyrimidine-4-carbonyl)piperazin-1-yl]-8-oxo-5H,8H-pyrido[2,3-b]pyrazin-5-yl}acetamide]
500 to 2000 | 5 to 50 | CCc1c(N2CCN(C(=O)c3ncnc(C)c3O)C[C@@H]2C)c(=O)c2nc(N3CCC3)cnc2n1CC(=O)Nc1ccc(C(F)(F)F)cc1Cl [I-187, 2-[2-(azetidin-1-yl)-6-ethyl-7-[(2S)-4-(5-hydroxy-6-methylpyrimidine-4-carbonyl)-2-methylpiperazin-1-yl]-8-oxo-5H,8H-pyrido[2,3-b]pyrazin-5-yl]-N-[2-chloro-4-(trifluoromethyl)phenyl]acetamide]
500 to 2000 | 5 to 50 | CCc1c(N2CCN(C(=O)c3ncnc(C)c3O)C[C@@H]2CC)c(=O)c2nc(N(C)C)cnc2n1CC(=O)Nc1ccc(C(F)(F)F)cc1Cl [I-191, N-[2-chloro-4-(trifluoromethyl)phenyl]-2-[2-(dimethylamino)-6-ethyl-7-[(2S)-2-ethyl-4-(5-hydroxy-6-methylpyrimidine-4-carbonyl)piperazin-1-yl]-8-oxo-5H,8H-pyrido[2,3-b]pyrazin-5-yl]acetamide]
< 500 | ≤ 5 | CCc1c(N2CCN(C(=O)c3ncc4c(c3O)CCO4)CC2)c(=O)c2nc(N(C)C3CC3)cnc2n1CC(=O)Nc1ccc(C(F)(F)F)cc1Cl [I-194, N-[2-chloro-4-(trifluoromethyl)phenyl]-2-{2-[cyclopropyl(methyl)amino]-6-ethyl-7-(4-{4-hydroxy-2H,3H-furo[2,3-c]pyridine-5-carbonyl}piperazin-1-yl)-8-oxo-5H,8H-pyrido[2,3-b]pyrazin-5-yl}acetamide]
2000 to 5000 | 5 to 50 | CCc1c(N2CCN(C(=O)c3ncnc(C)c3O)CC2)c(=O)c2nc(OC3CC3)cnc2n1CC(=O)Nc1ccc(C(F)(F)F)cc1Cl [I-195, N-[2-chloro-4-(trifluoromethyl)phenyl]-2-{2-cyclopropoxy-6-ethyl-7-[4-(5-hydroxy-6-methylpyrimidine-4-carbonyl)piperazin-1-yl]-8-oxo-5H,8H-pyrido[2,3-b]pyrazin-5-yl}acetamide]
> 5000 | 50 to 100 | CCc1c(N2CCN(C(=O)c3ncnc(C)c3O)[C@@H](C(F)F)C2)c(=O)c2nc(N(C)C)cnc2n1CC(=O)Nc1ccc(C(F)(F)F)cc1Cl [I-197, N-[2-chloro-4-(trifluoromethyl)phenyl]-2-{7-[(3R)-3-(difluoromethyl)-4-(5-hydroxy-6-methylpyrimidine-4-carbonyl)piperazin-1-yl]-2-(dimethylamino)-6-ethyl-8-oxo-5H,8H-pyrido[2,3-b]pyrazin-5-yl}acetamide]

Source: patent US20250034136A1 (Nimbus Wadjet, Inc., priority 2023, published 2025)
